One test deals with Human mTOR (FLAG-TOR) (Homo sapiens, UniProt P42345). The test can be described thus: mTOR kinase assay (DELFIA format, purified enzyme). The conditions noted are these: read-out: IC50 mTOR. The test is classed as biochemical.
Another test concerns the target PI3K-α (Homo sapiens, UniProt P42336). In words: PI3K-alpha fluorescence polarization assay. For orientation: Fluorescence polarisation rises when a labelled molecule tumbles more slowly, as on binding a larger partner.
The next test deals with PI3K-γ (Homo sapiens, UniProt P48736). The test can be described thus: PI3K-gamma fluorescence polarization assay.

Several values for one entry are separate records, joined by “and”; a condition that tells them apart may be missing. Identical values can stand only once. Like-named read-outs stand apart in the source and are kept apart here.

PI3K-α, sequence (P42336 whole entry, species assumed): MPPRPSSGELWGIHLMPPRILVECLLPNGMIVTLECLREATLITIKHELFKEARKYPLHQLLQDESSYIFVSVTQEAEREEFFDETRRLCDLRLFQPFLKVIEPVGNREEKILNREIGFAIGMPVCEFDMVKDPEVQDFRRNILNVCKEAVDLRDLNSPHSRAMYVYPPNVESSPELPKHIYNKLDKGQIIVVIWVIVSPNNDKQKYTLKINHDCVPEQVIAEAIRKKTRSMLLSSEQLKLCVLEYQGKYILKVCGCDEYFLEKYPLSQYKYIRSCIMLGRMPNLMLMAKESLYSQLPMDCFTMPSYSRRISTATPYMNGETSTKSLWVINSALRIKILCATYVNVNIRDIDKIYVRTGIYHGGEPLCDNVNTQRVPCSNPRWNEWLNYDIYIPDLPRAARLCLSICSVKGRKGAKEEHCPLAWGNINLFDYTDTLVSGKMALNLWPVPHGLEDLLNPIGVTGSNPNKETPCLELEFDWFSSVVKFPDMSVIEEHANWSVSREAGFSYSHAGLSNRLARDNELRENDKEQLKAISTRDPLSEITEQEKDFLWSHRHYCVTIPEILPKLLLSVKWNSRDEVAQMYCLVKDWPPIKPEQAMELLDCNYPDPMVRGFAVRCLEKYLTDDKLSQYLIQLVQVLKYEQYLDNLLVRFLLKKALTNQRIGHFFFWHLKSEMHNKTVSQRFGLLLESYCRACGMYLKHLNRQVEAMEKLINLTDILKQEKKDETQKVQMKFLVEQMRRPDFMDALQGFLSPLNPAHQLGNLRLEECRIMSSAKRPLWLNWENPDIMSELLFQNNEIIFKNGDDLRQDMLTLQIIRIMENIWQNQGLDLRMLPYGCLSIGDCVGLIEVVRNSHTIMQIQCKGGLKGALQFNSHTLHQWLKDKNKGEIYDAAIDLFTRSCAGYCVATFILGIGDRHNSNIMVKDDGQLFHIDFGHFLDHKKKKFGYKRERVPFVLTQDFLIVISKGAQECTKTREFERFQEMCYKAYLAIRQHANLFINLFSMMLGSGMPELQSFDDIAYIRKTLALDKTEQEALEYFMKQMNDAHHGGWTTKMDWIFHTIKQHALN
PI3K-α, sequence (P27986 whole entry partner, species assumed): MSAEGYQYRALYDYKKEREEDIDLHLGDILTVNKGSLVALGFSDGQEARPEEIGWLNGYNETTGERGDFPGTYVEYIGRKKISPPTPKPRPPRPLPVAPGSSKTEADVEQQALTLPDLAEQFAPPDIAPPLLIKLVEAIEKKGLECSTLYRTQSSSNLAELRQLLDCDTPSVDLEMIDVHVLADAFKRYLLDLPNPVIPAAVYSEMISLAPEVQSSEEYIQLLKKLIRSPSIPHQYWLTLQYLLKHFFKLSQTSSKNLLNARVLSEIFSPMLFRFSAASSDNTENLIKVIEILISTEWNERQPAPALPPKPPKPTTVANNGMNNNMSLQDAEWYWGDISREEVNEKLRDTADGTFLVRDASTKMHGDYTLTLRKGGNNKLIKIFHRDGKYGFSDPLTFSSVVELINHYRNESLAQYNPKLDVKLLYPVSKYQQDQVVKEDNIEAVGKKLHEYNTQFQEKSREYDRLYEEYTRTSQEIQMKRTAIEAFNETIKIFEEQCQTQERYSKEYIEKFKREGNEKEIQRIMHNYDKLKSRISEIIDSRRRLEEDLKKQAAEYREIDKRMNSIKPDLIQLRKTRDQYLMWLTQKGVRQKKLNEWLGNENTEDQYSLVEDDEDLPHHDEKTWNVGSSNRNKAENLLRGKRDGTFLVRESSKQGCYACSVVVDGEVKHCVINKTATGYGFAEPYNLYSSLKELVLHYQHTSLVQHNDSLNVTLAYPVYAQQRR
Human mTOR (FLAG-TOR), sequence (P42345 1360-2549 limits assumed): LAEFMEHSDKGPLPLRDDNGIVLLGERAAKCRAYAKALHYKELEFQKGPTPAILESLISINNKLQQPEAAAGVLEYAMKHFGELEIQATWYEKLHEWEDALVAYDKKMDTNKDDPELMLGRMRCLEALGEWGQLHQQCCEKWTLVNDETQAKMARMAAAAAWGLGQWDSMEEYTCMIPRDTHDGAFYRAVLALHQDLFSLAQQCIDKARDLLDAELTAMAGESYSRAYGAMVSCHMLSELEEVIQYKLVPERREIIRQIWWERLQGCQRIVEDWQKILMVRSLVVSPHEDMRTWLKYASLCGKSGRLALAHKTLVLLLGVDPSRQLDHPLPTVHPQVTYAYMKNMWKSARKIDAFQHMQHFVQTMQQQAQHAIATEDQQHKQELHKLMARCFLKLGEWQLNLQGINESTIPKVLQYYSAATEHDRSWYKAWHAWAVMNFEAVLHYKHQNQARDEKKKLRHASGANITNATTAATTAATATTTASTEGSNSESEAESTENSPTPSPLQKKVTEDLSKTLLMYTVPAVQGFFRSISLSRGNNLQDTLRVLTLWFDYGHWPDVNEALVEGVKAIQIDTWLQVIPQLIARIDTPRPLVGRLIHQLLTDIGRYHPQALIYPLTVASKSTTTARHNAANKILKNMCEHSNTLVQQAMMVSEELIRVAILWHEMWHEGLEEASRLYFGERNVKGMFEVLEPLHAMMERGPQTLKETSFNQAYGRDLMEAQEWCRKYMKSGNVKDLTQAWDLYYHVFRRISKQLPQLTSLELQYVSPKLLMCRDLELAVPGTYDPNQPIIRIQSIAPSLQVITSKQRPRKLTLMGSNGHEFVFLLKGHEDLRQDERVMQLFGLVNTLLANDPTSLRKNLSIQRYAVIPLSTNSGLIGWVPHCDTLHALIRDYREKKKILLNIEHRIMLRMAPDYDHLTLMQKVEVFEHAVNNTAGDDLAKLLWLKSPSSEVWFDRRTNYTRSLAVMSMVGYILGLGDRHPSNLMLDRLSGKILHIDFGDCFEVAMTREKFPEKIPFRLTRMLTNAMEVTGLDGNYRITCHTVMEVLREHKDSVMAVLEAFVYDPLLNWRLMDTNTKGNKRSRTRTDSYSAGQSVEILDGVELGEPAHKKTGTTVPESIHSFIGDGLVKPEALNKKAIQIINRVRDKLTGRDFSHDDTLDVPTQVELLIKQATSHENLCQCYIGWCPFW
PI3K-γ, sequence (P48736 whole entry, species assumed): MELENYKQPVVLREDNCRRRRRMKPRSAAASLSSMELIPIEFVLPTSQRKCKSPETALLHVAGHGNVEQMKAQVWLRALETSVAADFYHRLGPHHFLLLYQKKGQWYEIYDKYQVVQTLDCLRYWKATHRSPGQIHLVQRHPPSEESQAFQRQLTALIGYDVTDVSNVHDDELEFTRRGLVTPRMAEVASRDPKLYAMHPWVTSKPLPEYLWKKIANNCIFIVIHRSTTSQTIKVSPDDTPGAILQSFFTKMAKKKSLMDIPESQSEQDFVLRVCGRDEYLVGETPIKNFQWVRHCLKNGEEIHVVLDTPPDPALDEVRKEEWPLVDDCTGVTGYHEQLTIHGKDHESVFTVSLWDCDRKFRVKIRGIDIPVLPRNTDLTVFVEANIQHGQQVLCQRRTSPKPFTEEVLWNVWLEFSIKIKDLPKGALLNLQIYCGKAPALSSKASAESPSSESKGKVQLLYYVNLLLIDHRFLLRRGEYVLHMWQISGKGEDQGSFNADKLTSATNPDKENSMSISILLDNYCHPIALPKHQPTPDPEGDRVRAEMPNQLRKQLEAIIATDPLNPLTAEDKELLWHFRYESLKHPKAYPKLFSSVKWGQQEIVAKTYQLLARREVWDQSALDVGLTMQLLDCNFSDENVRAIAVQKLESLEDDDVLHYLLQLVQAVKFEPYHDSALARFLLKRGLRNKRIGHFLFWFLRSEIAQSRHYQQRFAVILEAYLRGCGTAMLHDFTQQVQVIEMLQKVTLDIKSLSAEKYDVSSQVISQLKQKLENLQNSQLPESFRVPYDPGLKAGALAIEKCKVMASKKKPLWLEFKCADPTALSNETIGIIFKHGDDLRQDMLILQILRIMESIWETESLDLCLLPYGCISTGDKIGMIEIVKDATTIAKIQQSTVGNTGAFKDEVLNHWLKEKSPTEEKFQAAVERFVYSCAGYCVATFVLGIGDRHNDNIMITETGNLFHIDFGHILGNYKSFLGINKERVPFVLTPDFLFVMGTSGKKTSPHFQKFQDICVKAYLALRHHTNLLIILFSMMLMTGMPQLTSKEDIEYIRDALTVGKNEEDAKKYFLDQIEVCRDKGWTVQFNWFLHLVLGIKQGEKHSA

With “1-(3-{[4-(dimethylamino)piperidin-1-yl]carbonyl}phenyl)-3-{4-[4-(4-methylphenyl)-6-morpholin-4-yl-1,3,5-triazin-2-yl]phenyl}urea [Example 579]”, the IC50 was 120 nM at Human mTOR (FLAG-TOR), 462 nM on PI3K-α (read-out: IC50 PI3Kα) and 658 nM at PI3K-γ (read-out: IC50 PI3Kγ).

Take “1-(4-(4-(3-oxa-8-azabicyclo[3.2.1]octan-8-yl)-6-(piperidin-4-ylamino)-1,3,5-triazin-2-yl)phenyl)-3-ethylurea [Example 363]”: the half-maximal inhibitory concentration (IC50) on Human mTOR (FLAG-TOR) turned out to be 0.77 nM; on PI3K-α (read-out: IC50 PI3Kα), 1100 nM; on PI3K-γ (read-out: IC50 PI3Kγ) it was 7140 nM.

`COc1ccc(NC(=O)Nc2ccc(-c3nc(N4CCOCC4)nc(N4CCOCC4)n3)cc2)c(OC)c1` [Example 7, 1-(2,4-dimethoxyphenyl)-3-[4-(4,6-dimorpholin-4-yl-1,3,5-triazin-2-yl)phenyl]-urea]: the IC50 was more than 4000 nM at Human mTOR (FLAG-TOR) and more than 10000 nM at PI3K-α.

Turning to `CCNC(=O)Nc1ccc(-c2nc(N3CCOCC3)nc(N3CCOCC3)n2)cc1` [Example 12, 1-[4-(4,6-dimorpholin-4-yl-1,3,5-triazin-2-yl)phenyl]-3-ethylurea], the figures for the IC50 on Human mTOR (FLAG-TOR), at PI3K-α (read-out: IC50 PI3Kα) and on PI3K-γ (read-out: IC50 PI3Kγ) were 11 nM, 248 nM and 815 nM, respectively.

In the case of `Cc1ccc(NC(=O)Nc2ccc(-c3nc(NC4CN(C(=O)OC(C)(C)C)C4)nc(N4CCOCC4)n3)cc2)cc1` [Example 16, tert-butyl 3-{[4-(4-{[(4-methylphenyl)carbamoyl]amino}phenyl)-6-morpholin-4-yl-1,3,5-triazin-2-yl]amino}azetidine-1-carboxylate], the IC50 on Human mTOR (FLAG-TOR) is 12 nM; against PI3K-α, more than 10000 nM.

In the case of `Nc1ccc(-c2nc(N3CCOCC3)nc(N3C4CCC3COC4)n2)cc1` [Example 33, 4-[4-morpholin-4-yl-6-(3-oxa-8-azabicyclo[3.2.1]oct-8-yl)-1,3,5-triazin-2-yl]aniline], the IC50 on Human mTOR (FLAG-TOR) was 91 nM; on PI3K-α (read-out: IC50 PI3Kα), 2550 nM; against PI3K-γ it was more than 10000 nM.

Regarding `CC(C)NC(=O)Nc1ccc(-c2nc(N3CCOCC3)nc(N3C4CCC3COC4)n2)cc1` [Example 44, 1-isopropyl-3-{4-[4-morpholin-4-yl-6-(3-oxa-8-azabicyclo[3.2.1]oct-8-yl)-1,3,5-triazin-2-yl]phenyl}urea], the IC50 came out at 13.5 nM on Human mTOR (FLAG-TOR), 1580 nM at PI3K-α (read-out: IC50 PI3Kα) and 9500 nM on PI3K-γ (read-out: IC50 PI3Kγ).

`O=C(NCCO)Nc1ccc(-c2nc(N3CCOCC3)nc(N3C4CCC3COC4)n2)cc1` [Example 45, 1-(2-hydroxyethyl)-3-{4-[4-morpholin-4-yl-6-(3-oxa-8-azabicyclo[3.2.1]oct-8-yl)-1,3,5-triazin-2-yl]phenyl}urea]: the concentration for half-maximal inhibition (IC50) stood at 3.6 nM at Human mTOR (FLAG-TOR), 504 nM at PI3K-α (read-out: IC50 PI3Kα) and 2080 nM on PI3K-γ (read-out: IC50 PI3Kγ).

For the molecule `CN(C)CCNC(=O)Nc1ccc(-c2nc(N3CCOCC3)nc(N3CCC4(CC3)OCCO4)n2)cc1` [Example 46, 1-[2-(dimethylamino)ethyl]-3-{4-[4-(1,4-dioxa-8-azaspiro[4.5]dec-8-yl)-6-morpholin-4-yl-1,3,5-triazin-2-yl]phenyl}urea], the IC50 was 24 nM and 20 nM on Human mTOR (FLAG-TOR); 208 nM at PI3K-α (read-out: IC50 PI3Kα, listed as 136); 208 nM on PI3K-α (read-out: IC50 PI3Kα, listed as 711); 4920 nM on PI3K-γ (read-out: IC50 PI3Kγ, listed as 136); 4920 nM at PI3K-γ (read-out: IC50 PI3Kγ, listed as 711).

Regarding `O=C(Nc1ccc(-c2nc(N3CCOCC3)nc(N3CCOCC3)n2)cc1)Nc1ccc(C(F)(F)F)cn1` [Example 55, 1-[4-(4,6-dimorpholin-4-yl-1,3,5-triazin-2-yl)phenyl]-3-[5-(trifluoromethyl)pyridin-2-yl]urea], the half-inhibitory concentration (IC50) came out at 50 nM on Human mTOR (FLAG-TOR), 205 nM on PI3K-α (read-out: IC50 PI3Kα) and 1580 nM on PI3K-γ (read-out: IC50 PI3Kγ).

Regarding `O=C(Nc1ccc(-c2nc(N3CCOCC3)nc(N3CCOCC3)n2)cc1)Nc1ccc(C(O)(C(F)(F)F)C(F)(F)F)cc1` [Example 56, 1-[4-(4,6-dimorpholin-4-yl-1,3,5-triazin-2-yl)phenyl]-3-{4-[2,2,2-trifluoro-1-hydroxy-1-(trifluoromethyl)ethyl]phenyl}urea], at Human mTOR (FLAG-TOR), the IC50 was 15 nM and 10 nM.

Turning to `CNCCNC(=O)Nc1ccc(-c2nc(OC3CCOCC3)nc(N3CCOCC3)n2)cc1` [Example 64, 1-[2-(methylamino)ethyl]-3-{4-[4-morpholin-4-yl-6-(tetrahydro-2H-pyran-4-yloxy)-1,3,5-triazin-2-yl]phenyl}urea], the IC50 at Human mTOR (FLAG-TOR) came to 1500 nM; at PI3K-α (read-out: IC50 PI3Kα), 1460 nM; on PI3K-γ (read-out: IC50 PI3Kγ) it was 1190 nM.

As to `CN1CCC(NC(=O)Nc2ccc(-c3nc(N4CCOCC4)nc(N4CCOCC4)n3)cc2)CC1` [Example 98, 1-[4-(4,6-dimorpholin-4-yl-1,3,5-triazin-2-yl)phenyl]-3-(1-methylpiperidin-4-yl)urea], the results for the IC50 at Human mTOR (FLAG-TOR), on PI3K-α (read-out: IC50 PI3Kα) and at PI3K-γ (read-out: IC50 PI3Kγ) were 2100 nM, 1350 nM and 9000 nM, respectively.

`C[C@H]1COCCN1c1nc(-c2ccc(NC(=O)NC3CCN(C)CC3)cc2)nc(N2CCOCC2)n1` [Example 99, 1-(4-{4-[(3S)-3-methylmorpholin-4-yl]-6-morpholin-4-yl-1,3,5-triazin-2-yl}phenyl)-3-(1-methylpiperidin-4-yl)urea]: the IC50 came to 460 nM at Human mTOR (FLAG-TOR), 1520 nM at PI3K-α (read-out: IC50 PI3Kα) and 7500 nM on PI3K-γ (read-out: IC50 PI3Kγ).

In the case of `CNC(=O)Nc1ccc(-c2nc(-c3ccc(NC(=O)Nc4ccc(C(N)=O)cc4)cc3)nc(N3CCOCC3)n2)cc1` [Example 462, 4-({[4-(4-{4-[(methylcarbamoyl)amino]phenyl}-6-morpholin-4-yl-1,3,5-triazin-2-yl)phenyl]carbamoyl}amino) benzamide], at Human mTOR (FLAG-TOR), the IC50 is less than 1 nM.

`CN(C)[C@@H]1CCN(C(=O)c2ccc(NC(=O)Nc3ccc(-c4nc(N5CCOCC5)nc(N5CCOCC5)n4)cc3)cc2)C1` [Example 484, 1-(4-{[(3R)-3-(dimethylamino)pyrrolidin-1-yl]carbonyl}phenyl)-3-[4-(4,6-dimorpholin-4-yl-1,3,5-triazin-2-yl)phenyl]urea]: the IC50 was found to be 0.63 nM on Human mTOR (FLAG-TOR) and 1 nM at PI3K-α (read-out: IC50 PI3Kα).

On to `CN(C)[C@H]1CCN(C(=O)c2ccc(NC(=O)Nc3ccc(-c4nc(N5CCOCC5)nc(N5CCOCC5)n4)cc3)cc2)C1` [Example 485, 1-(4-{[(3S)-3-(dimethylamino)pyrrolidin-1-yl]carbonyl}phenyl)-3-[4-(4,6-dimorpholin-4-yl-1,3,5-triazin-2-yl)phenyl]urea], for which the IC50 at Human mTOR (FLAG-TOR) amounted to 1.25 nM; at PI3K-α (read-out: IC50 PI3Kα), 1.4 nM.

Turning to `CC(C)N1CCN(C(=O)c2ccc(NC(=O)Nc3ccc(-c4nc(C5CCOCC5)nc(N5CCOCC5)n4)cc3)cc2)CC1` [Example 523, 1-(4-{[4-(1-methylethyl)piperazin-1-yl]carbonyl}phenyl)-3-{4-[4-morpholin-4-yl-6-(tetrahydro-2H-pyran-4-yl)-1,3,5-triazin-2-yl]phenyl}urea], the IC50 at Human mTOR (FLAG-TOR) worked out at 0.43 nM.

On to `O=C(Nc1ccncc1)Nc1ccc(-c2nc(NS(=O)(=O)c3ccccc3)nc(N3CCOCC3)n2)cc1` [Example 781, N-(4-morpholin-4-yl-6-{4-[(pyridin-4-ylcarbamoyl)amino]phenyl}-1,3,5-triazin-2-yl)benzenesulfonamide], for which the values for the IC50 at PI3K-α (read-out: IC50 PI3Kα) and at PI3K-γ (read-out: IC50 PI3Kγ) were 136 nM and 374 nM, respectively.

On to `C[C@H]1COCCN1c1nc(-c2ccc(NC(=O)Nc3ccc(C(=O)N4CCNCC4)cc3)cc2)nc(N2C3CCC2COC3)n1` [Example 838, 1-(4-{4-[(3S)-3-methylmorpholin-4-yl]-6-(3-oxa-8-azabicyclo[3.2.1]oct-8-yl)-1,3,5-triazin-2-yl}phenyl)-3-[4-(piperazin-1-ylcarbonyl)phenyl]urea], for which the IC50 on PI3K-α (read-out: IC50 PI3Kα) is 4 nM; on PI3K-γ (read-out: IC50 PI3Kγ), 69.5 nM.

The IC50 is the midpoint of a concentration-inhibition curve.

The record behind these values is US20090304692A1, “TRIAZINE COMPOUNDS AS PI3 KINASE AND MTOR INHIBITORS” (Wyeth, priority 2008, published 2009).
